In article PMC5951806, “Rapid labelling and covalent inhibition of intracellular native proteins using ligand-directed N-acyl-N-alkyl sulfonamide” (Nature Communications, 2018):
Where “and” joins values, the source holds several entries; their conditions need not be identical. Equal entries are not always repeated.

How the values were obtained:
[1] = target: T1, ATP-citrate synthase (ACLY) (Homo sapiens, UniProt P53396); experiment: TMT LC-MSMS of 11-labelled proteins; format: cell-based
T1 sequence (P53396 1-1101): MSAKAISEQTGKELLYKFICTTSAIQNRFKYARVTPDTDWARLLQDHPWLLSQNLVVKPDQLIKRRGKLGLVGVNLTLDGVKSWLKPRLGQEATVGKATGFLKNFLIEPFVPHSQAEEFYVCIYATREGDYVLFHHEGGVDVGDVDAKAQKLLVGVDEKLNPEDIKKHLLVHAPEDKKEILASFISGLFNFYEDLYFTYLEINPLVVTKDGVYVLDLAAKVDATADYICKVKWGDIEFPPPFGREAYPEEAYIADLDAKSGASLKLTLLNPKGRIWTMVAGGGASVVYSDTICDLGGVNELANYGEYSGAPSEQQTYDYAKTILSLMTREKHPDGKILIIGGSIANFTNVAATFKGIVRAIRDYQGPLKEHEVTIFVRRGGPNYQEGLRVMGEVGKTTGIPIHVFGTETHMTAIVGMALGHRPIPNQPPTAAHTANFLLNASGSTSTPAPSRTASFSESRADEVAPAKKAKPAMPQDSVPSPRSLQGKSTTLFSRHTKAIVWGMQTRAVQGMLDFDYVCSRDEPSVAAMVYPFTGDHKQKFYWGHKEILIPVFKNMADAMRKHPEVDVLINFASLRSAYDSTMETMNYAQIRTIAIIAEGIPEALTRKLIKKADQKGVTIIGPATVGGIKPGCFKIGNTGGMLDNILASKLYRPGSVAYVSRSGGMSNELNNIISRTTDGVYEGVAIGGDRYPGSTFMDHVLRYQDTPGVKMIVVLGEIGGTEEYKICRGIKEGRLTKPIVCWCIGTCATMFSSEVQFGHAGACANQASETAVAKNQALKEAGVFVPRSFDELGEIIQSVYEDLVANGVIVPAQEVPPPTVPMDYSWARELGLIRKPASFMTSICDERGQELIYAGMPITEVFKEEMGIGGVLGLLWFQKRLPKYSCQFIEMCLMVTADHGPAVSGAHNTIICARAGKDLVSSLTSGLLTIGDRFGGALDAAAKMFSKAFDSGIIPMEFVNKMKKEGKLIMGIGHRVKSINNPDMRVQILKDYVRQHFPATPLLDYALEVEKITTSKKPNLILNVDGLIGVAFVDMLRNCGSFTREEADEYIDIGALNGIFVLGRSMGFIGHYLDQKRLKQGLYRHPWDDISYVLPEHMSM

[2] = target: Isoform 2 of Heat shock protein HSP 90-alpha (HSP90AA1) (Homo sapiens, UniProt P07900); experiment: TMT LC-MSMS of 11-labelled proteins; format: cell-based
[3] = sheet Merged, SKBR3 cells, 11 0.5 µM 3 h vs DMSO
[4] = sheet Merged, SKBR3 cells, 11 0.5 µM 3 h vs with PU-H71 10 µM

**Q.** For `CC(=O)Oc1ccc2c(c1)Oc1cc(OC(C)=O)ccc1C21OC(=O)c2cc(C(=O)NCCOCCOCCNC(=O)CCCC(=O)N(CC#N)S(=O)(=O)c3ccc(C(=O)NCCCn4c(Sc5cc6c(cc5I)OCO6)nc5c(N)ncnc54)cc3)ccc21` [compound 11], which “Abundance Ratio: (11) / (11 with PU-H71)” value ([1]; Exp3, ACLY) is on record?
**A.** Its value is 0.932.

**Q.** And the “Abundance Ratio: (11) / (DMSO)” value ([1]; Exp3, ACLY)?
**A.** Its value is 2.236.

**Q.** And the “Abundances (Grouped): 11” value ([1]; Exp3, ACLY)?
**A.** Its value is 52.1.

**Q.** What about the “Abundances (Grouped): 11 with PU-H71” value ([1]; Exp3, ACLY) of the same compound?
**A.** Its value is 55.9.

**Q.** What about the “Abundance Ratio: (11) / (11 with PU-H71)” value ([1]; sheet Exp2, ACLY) of the same compound?
**A.** The value was 0.837.

**Q.** And the “Abundance Ratio: (11) / (DMSO)” value ([1]; sheet Exp2, ACLY)?
**A.** Its value is 2.101.

**Q.** And the “Abundances (Grouped): 11” value ([1]; sheet Exp2, ACLY)?
**A.** The value was 33.4.

**Q.** What about the “Abundances (Grouped): 11 with PU-H71” value ([1]; sheet Exp2, ACLY) of the same compound?
**A.** The value was 39.9.

**Q.** And the “Abundance Ratio: (11) / (DMSO)” value [1, 3]?
**A.** The value was 2.047.

**Q.** And the “Abundance Ratio: (11) / (11 with PU-H71)” value [1, 4]?
**A.** The value was 0.851.

**Q.** And the “Abundance Ratio: (11) / (11 with PU-H71)” value ([2]; Exp3, HSP90AA1)?
**A.** Its value is 4.154.

**Q.** What about the “Abundance Ratio: (11) / (DMSO)” value ([2]; Exp3, HSP90AA1) of the same compound?
**A.** Its value is 13.53.

**Q.** What about the “Abundances (Grouped): 11” value ([2]; Exp3, HSP90AA1) of the same compound?
**A.** Its value is 1235.3.

**Q.** What about the “Abundances (Grouped): 11 with PU-H71” value ([2]; Exp3, HSP90AA1) of the same compound?
**A.** Its value is 297.4.

**Q.** And the “Abundance Ratio: (11) / (DMSO)” value ([2]; sheet Exp1, SKBR3 cells, 11 0.5 µM 3 h vs DMSO)?
**A.** The value was 12.472.

**Q.** And the “Abundance Ratio: (11) / (11 with PU-H71)” value ([2]; sheet Exp1, SKBR3 cells, 11 0.5 µM 3 h vs with PU-H71 10 µM)?
**A.** The value was 3.732.

**Q.** And the “Abundance Ratio: (11) / (11 with PU-H71)” value ([2]; sheet Exp2, HSP90AA1)?
**A.** Its value is 3.971.

**Q.** And the “Abundance Ratio: (11) / (DMSO)” value ([2]; sheet Exp2, HSP90AA1)?
**A.** Its value is 11.996.

**Q.** And the “Abundances (Grouped): 11” value ([2]; sheet Exp2, HSP90AA1)?
**A.** The value was 903.3.

**Q.** And the “Abundances (Grouped): 11 with PU-H71” value ([2]; sheet Exp2, HSP90AA1)?
**A.** Its value is 227.5.

**Q.** What about the “Abundance Ratio: (11) / (DMSO)” value [2, 3] of the same compound?
**A.** Its value is 13.5 and 13.53.

**Q.** What about the “Abundance Ratio: (11) / (11 with PU-H71)” value [2, 4] of the same compound?
**A.** The value was 4.154.
